Reference: paper PMC13198257, “An aerosolized dual-action autotaxin inhibitor-PPARγ agonist for the treatment of pulmonary fibrosis” (Cell Reports Medicine, 2026)

Legend:
[1] = Fast-track PK of compound 5: plasma exposure after i.v., i.p., inhalation, per os; type: in vivo, mice; conditions: 30 mg/kg, 1 and 3 h post-dose, versus i.v.
Autotaxin = target: T1, Autotaxin (Homo sapiens, UniProt Q13822); assay: HDX-MS of Autotaxin with and without EL244; type: binding
T1 construct: purchased Sino Biological 11308-H07H
Description: All HDX experiments were performed using a dual head parallel Trajan LEAP automation system (Carrboro, NC, USA).[153] Briefly, 5μL of reconstituted Autotaxin (1.25mg/mL) with and without EL244, was diluted into 100μL of labeling buffer (10mM PBS, 150mM sodium chloride, pD = 7.4 in D2O). pD was determined using pH measurements with a glass electrode and corrected for the isotopic effect.[154] Samples were labeled in quadruplicate for each labeling time (30s, 300s and 3000s) at 25°C. For experiments with bounded Autotaxin, both the protein stock and labeling buffer contained 50μM of the ligand to ensure >95% bound protein during labeling.[155] Afterward, 100 μL of labeled samples were quenched by mixing with equal amounts of precooled quench buffer (100mM glycine, 3M urea, 0.5M TCEP, pH 2.3 in water) at 1°C and held at that temperature for 120s to improve disulfide bond reduction. Non-deuterated controls and initial peptide map samples were prepared identically but using 10mM PBS, 150mM sodium chloride, pH = 7.4 in water as labeling buffer. […] Peptide masses were measured using a Waters SELECT SERIES cyclic IMS QTOF system using positive mode ionization and single pass ion mobility. All HDX experiments were measured using HDMS mode while initial peptide maps used HDMSE with a collision energy ramp of 20-45v.[156] […]

O=C1NC(=O)C(Cc2ccc(OCCN3CCN(C(=O)OCc4cc(Cl)cc(Cl)c4)CC3)cc2)S1 (stereo not drawn) [Compound 5, 3,5-dichlorobenzyl4-(2-(4-((2,4-dioxothiazolidin-5-yl)methyl)phenoxy)ethyl)piperazine-1-carboxylate]
Plasma concentrations after i.p. and per os administration [1]: comparable to the respective i.v. concentrations

O=C1NC(=O)C(Cc2ccc(OCCC3CCN(C(=O)OCc4cc(Cl)cc(Cl)c4)CC3)cc2)S1 (stereo not drawn) [EL244, 3,5-dichlorobenzyl 4-(2-(4-((2,4-dioxothiazolidin-5-yl)methyl)phenoxy)ethyl)piperidine-1-carboxylate]
Binding site on ATX (Autotaxin; HDX-MS, protected region 214–289 mapped on 2XR9): binds to the hydrophobic pocket and the allosteric tunnel of ATX
ATX inhibitor type (Autotaxin; HDX/MS and MD analysis): type IV ATX inhibitor
